Results reported in publication PMC11418212, “Characterization of four structurally diverse inhibitors of SUR2-containing KATP channels” (Channels, 2024).

Tests used:
Experiment in all cases: Kir family selectivity thallium flux assay
Format in all cases: cell-based
Kir1.1 = target: T1, Kir1.1 (Homo sapiens, UniProt P48048)
T1 construct: expressed in transfected cells
T1 sequence (P48048 1-391): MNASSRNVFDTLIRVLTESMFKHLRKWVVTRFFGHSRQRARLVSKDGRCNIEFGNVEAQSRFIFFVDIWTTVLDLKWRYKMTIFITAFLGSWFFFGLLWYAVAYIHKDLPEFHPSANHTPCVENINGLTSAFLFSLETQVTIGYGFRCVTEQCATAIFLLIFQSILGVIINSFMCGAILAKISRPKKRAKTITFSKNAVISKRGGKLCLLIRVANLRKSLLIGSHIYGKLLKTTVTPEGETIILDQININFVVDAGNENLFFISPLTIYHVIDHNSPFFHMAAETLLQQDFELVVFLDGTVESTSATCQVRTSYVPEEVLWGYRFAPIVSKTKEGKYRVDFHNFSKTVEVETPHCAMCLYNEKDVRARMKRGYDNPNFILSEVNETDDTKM
Procedure: (§1) Thallium flux assays were conducted using the established methods. Stably transfected T-REx-HEK-293 cells expressing Kir6.2/SUR1 or Kir6.1/SUR2B were cultured overnight in polyamine-coated plates (black-walled, clear-bottomed; BD, Bedford, MA) at a density of 20,000 cells in 20 µl per well of cell culture media. The expression of Kir6.2/SUR1 or Kir6.1/SUR2B channels was induced by treating cells with 1 µg/ml tetracycline overnight. The following day, cells were rinsed with an assay buffer (Hanks’ Balanced Salt Solution supplied with 20 mM HEPES), loaded with the thallium-sensor dye Brilliant Thallos-AM AM (Ion Bioscience, San Marcos, TX) for 1 h, and then washed again with assay buffer to remove unincorporated dye. The cell plate was subsequently placed in a Panoptic Kinetic Imaging Plate Reader (Wavefront Bioscience, Franklin, TN) and imaged at a frequency of 1 Hz using 482/35 nm (excitation) and 536/40 nm (emission) filter sets. Kir6.1/SUR2B channels were activated with 10 µM pinacidil, whereas Kir6.1/SUR1 was activated with 30 µM VU0071063 [34]. To activate KATP channels independent of activators with ATP-depletion method, cells were treated with a cocktail of metabolic inhibitors (2.5 mM sodium cyanide and 20 mM 2-deoxy glucose) for 25 min before imagine. Control and test compounds diluted freshly from DMSO stocks into assay buffer were added to wells for four minutes before adding 0.5 mM chloride-free thallium stimulus buffer (Ion Bioscience) to initiate thallium flux through the expressed KATP channels. Thallium flux was recorded from all 384-wells for 2 min before terminating the experiment. […] Selectivity assays against other Kir channels were performed as described previously.
(§2) To begin elucidating the binding site location of VU0212387, VU0543336, VU0605768, and VU0544086, we evaluated the activity of the inhibitors against KATP channels composed of different Kir and SUR subunit combinations expressed in HEK293 cells. Specifically, the compounds were tested against Kir6.1/SUR1, Kir6.2/SUR1, Kir6.1/SUR2A, Kir6.2/SUR2A, Kir6.1/SUR2B, and Kir6.2/SUR2B at a dose of 3 µM. […] We expanded the selectivity analysis to include 10 other members of the Kir channel family.

Kir2.3 = target: T2, Kir2.3 (Homo sapiens, UniProt P48050)
T2 construct: expressed in transfected cells
T2 sequence (P48050 1-445): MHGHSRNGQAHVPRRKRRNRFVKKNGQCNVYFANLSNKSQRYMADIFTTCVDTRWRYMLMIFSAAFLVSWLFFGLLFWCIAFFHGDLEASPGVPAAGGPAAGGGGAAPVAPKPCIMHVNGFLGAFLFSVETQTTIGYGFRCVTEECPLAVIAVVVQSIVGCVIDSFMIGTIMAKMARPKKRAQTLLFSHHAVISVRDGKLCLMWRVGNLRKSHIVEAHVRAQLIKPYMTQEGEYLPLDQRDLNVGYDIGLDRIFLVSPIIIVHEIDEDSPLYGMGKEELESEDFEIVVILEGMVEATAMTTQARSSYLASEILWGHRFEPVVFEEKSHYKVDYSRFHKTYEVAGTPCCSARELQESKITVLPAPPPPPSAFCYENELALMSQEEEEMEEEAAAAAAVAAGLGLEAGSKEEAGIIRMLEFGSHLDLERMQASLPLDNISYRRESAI
Procedure: as §1, §2

Kir4.1 = target: T3, Kir4.1 (Homo sapiens, UniProt P78508)
T3 construct: expressed in transfected cells
T3 sequence (P78508 1-379): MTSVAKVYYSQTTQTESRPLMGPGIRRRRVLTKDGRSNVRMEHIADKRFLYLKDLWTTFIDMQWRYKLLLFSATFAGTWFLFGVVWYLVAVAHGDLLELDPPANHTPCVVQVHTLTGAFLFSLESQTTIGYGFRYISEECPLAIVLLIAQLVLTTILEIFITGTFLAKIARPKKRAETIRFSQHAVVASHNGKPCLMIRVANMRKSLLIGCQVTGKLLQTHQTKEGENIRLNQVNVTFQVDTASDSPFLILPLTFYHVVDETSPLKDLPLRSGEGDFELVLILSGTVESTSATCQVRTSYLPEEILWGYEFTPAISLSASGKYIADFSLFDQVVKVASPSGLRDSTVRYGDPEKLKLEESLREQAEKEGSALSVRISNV
Procedure: as §1, §2

Kir4.1/5.1 = target: T4, Kir4.1/5.1 (Homo sapiens, UniProt P78508+Q9NPI9)
T4 construct: expressed in transfected cells
T4 sequence (P78508 1-379): T3 sequence (P78508 1-379)
T4 sequence (Q9NPI9 1-418): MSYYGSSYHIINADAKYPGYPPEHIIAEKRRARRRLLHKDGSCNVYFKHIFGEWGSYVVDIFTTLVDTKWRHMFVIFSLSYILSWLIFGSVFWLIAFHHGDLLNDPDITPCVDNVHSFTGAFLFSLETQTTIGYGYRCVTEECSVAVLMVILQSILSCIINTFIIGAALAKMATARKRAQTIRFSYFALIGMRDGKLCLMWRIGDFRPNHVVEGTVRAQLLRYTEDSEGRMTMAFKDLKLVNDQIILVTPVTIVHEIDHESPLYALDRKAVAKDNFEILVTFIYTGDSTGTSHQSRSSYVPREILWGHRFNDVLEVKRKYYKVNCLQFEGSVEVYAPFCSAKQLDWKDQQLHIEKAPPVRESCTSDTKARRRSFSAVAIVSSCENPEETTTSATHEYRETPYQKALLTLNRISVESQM
Procedure: as §1, §2

Measured: IC50

c1ccc2[nH]c(CSc3ncnc4c3oc3ccccc34)nc2c1 [VU0212387, 4-(((1 H-benzo[d]imidazol-2-yl)methyl)thio)benzofuro[3,2-d]pyrimidine]
> 30 µM: all assays above

O=C(NCC(O)(c1ccccc1)C(F)(F)F)c1ccc(OC(F)(F)F)cc1 (stereo not shown) [VU0543336, N-(3,3,3-trifluoro-2-hydroxy-2-phenylpropyl)-4-(trifluoromethoxy)benzamide]
> 30 µM: all assays above

O=C(NCc1cc(-c2ccncc2)n(C2CCCC2)n1)Nc1cccs1 [VU0544086, 1-((1-cyclopentyl-5-(pyridin-4-yl)-1 H-pyrazol-3-yl)methyl)-3-(thiophen-2-yl)urea]
> 30 µM: all assays above

O=C1c2oc3ccccc3c(=O)c2C(c2cccc(Br)c2)N1CCO (stereo not shown) [VU0605768, 1-(3-bromophenyl)-2-(2-hydroxyethyl)-1,2-dihydrochromeno[2,3-c]pyrrole-3,9-dione]
> 30 µM: all assays above
